# Source: patent US5574061A, “Benzopyran derivative, process for producing the same and pharmaceutical composition containing the same” (priority 1990, dated 1996)
# Read-outs that look alike come from different tables or passages of the source.
# Legend:
# [1] = target: T1, ACAT enzyme (rabbit intestinal mucosa microsome) (Oryctolagus cuniculus, UniProt G1SFD9)
# T1 sequence (G1SFD9 1-524): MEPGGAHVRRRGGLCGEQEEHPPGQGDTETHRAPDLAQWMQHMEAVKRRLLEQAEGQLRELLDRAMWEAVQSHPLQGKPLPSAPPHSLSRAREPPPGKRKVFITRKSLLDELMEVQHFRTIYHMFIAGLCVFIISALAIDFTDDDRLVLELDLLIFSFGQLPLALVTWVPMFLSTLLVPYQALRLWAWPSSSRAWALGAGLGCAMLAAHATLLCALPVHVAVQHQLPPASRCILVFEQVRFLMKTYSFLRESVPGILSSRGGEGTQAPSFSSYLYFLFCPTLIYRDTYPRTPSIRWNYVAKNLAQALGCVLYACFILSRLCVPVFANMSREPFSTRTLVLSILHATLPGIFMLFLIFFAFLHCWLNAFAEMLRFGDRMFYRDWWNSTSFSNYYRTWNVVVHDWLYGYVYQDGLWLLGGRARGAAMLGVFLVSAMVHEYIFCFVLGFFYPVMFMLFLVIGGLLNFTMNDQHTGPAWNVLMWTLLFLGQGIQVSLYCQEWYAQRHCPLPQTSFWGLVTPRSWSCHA
# [2] = tested on: serum cholesterol; test: Percentage change of serum cholesterol in rats fed a feed enriched with cholesterol and fat; type: in vivo, male Wistar rats; settings: Rattus norvegicus, po, 72 h, Wistar rats, vs control; for change in vivo at 10 mg/kg: 10 mg per kg orally once a day for three days; for change in vivo at 1 mg/kg: 1 mg/kg orally once a day for three days
# Description: Percentage change of serum cholesterol
# Male Wistar rats having a weight of 200 g were preliminarily bred for 7 days while they freely ingested a normal feed (CE-2 manufactured by CLEA Japan Inc.).
# Thereafter, they were bred for 3 days while they freely ingested a feed enriched with cholesterol and fat (2% cholesterol, 1% cholic acid, 20% casein, 45% fine granulated sugar, 12% coconut oil, 4% KC flock, 1% mixed vitamin, 7% mixed mineral and 8% dried fish powder; a product of CLEA Japan Inc.). […] On the other hand, the excipient alone was administered to the control animals.
# 8 hr after the last administration, the test animals were fasted. 16 hr after the initiation of the fasting, these test animals were slaughtered. The serum cholesterol level was measured for each animal.
# The results were compared with those of the control and are given as percentage serum cholesterol (%) in Table 3.
# Percentage change of serum cholesterol (%)={(A-B)/B}×100
# wherein A represents the total cholesterol level of serum in the group of rats to which the test compound was administered; and B represents the total cholesterol level of serum in the control group of rats.
Structure (SMILES),IC50 [1],also measured
"CCCCCCCCCCCCNC(=O)Nc1c(C)ccc2c1OCCC2=O [Ex. 1, 1-Dodecyl-3-(7-methyl-4-chromanon-8-yl)urea]",0.073 µM,–
CCCCCCCCCCCCNC(=O)Nc1c(OC)ccc2c1OCCC2(C)C [Ex. 3],0.34 µM,–
COc1ccc2c(c1NC(=O)NCC1(c3ccccc3)CCCC1)OCCC2(C)C [Ex. 4],0.69 µM,–
Cc1ccc2c(c1NC(=O)NCC1(c3ccccc3)CCCC1)OCCC2=O [Ex. 6],0.53 µM,–
COc1ccc(C2(CNC(=O)Nc3c(C)ccc4c3OCCC4=O)CCCC2)cc1 [Ex. 7],0.5 µM,–
CCCCCCCCCCCCNC(=O)Nc1c(OC)ccc2c(=O)ccoc12 [Ex. 10],0.33 µM,–
CCCCCCCCCCC1(C(=O)Nc2ccc(OC)c3c2OCCC3(C)C)CCCC1 [Ex. 13],1.2 µM,–
CCCCCCCCCCCCCCCC(=O)Nc1c(C)ccc2c1OCCC2=O [Ex. 18],0.0078 µM,–
CCCCCCCCCCC1(C(=O)Nc2c(C)ccc3c2OCCC3=O)CCCC1 [Ex. 20],0.17 µM,change in vivo at 10 mg/kg [2]: -29%
COc1ccc2c(c1NC(=O)C(C)(C)CCCCCCc1ccccc1)OCCC2=O [Ex. 38],0.044 µM,–
COc1ccc2c(c1NC(=O)C(C)(C)CCCCCOc1ccc(Cl)cc1)OCCC2=O [Ex. 41],0.052 µM,change in vivo at 1 mg/kg [2]: -40%
Cc1cc(C)c2c(c1NC(=O)C(C)(C)CCCCCOc1ccc(Cl)cc1)OCCC2=O [Ex. 44],0.4 µM,–
COc1ccc2c(c1NC(=O)C(C)(C)CCCCCCOc1ccc(Cl)cc1)C(=O)CCO2 [Ex. 45],0.18 µM,–
CCCCCCCCCCCCCCC(C)(C)C(=O)Nc1c(OC)ccc2c(=O)ccoc12 [Ex. 49],–,"IC50 ([1]; read-out: ACAT Inhibitory Activity, IC50, rabbit intestinal mucosa microsome, [1-14C] oleoyl CoA, 37° C.): 0.052 µM"
CCCCCCCCCCC1(C(=O)Nc2c(OC)ccc3c(=O)ccoc23)CCCC1 [Ex. 50],0.27 µM,change in vivo at 10 mg/kg [2]: -27%
COc1ccc2c(=O)ccoc2c1NC(=O)C(C)(C)CCCCOc1ccc(C(C)(C)C)cc1 [Ex. 51],0.19 µM,–
COc1ccc2c(=O)ccoc2c1NC(=O)C(C)(C)CCCCCOc1ccc(Cl)cc1 [Ex. 52],0.16 µM,change in vivo at 3 mg/kg ([2]; 3 mg/kg orally once a day for three days): -17%
CCCCCCCCCCC(C)(C)C(=O)Nc1c(OC)ccc2c(=O)cc(CC)oc12 [Ex. 54],0.78 µM,–

# Continued, in another order:
IC50 [1],Structure (SMILES),also measured
0.013 µM,"CCCCCCCCCCC(C)(C)C(=O)Nc1c(OC)ccc2c1OCCC2=O [Ex. 2, N-(7-Methoxy-4-chromanon-8-yl)-2,2-dimethyldodecanamide]",–
0.21 µM,CCCCCCCCCCC(C)(C)C(=O)Nc1c(C)ccc2c1OCCC2=O [Ex. 19],change in vivo at 10 mg/kg [2]: -27%
0.25 µM,Cc1ccc2c(c1NC(=O)C(C)(C)CCCCCc1ccccc1)OCCC2=O [Ex. 25],change in vivo at 10 mg/kg [2]: -32%
0.34 µM,Cc1ccc2c(c1NC(=O)C(C)(C)CCCCOCCCC(C)C)OCCC2=O [Ex. 26],–
0.054 µM,Cc1ccc2c(c1NC(=O)C(C)(C)CCCCCCOCC(C)(C)C)OCCC2=O [Ex. 28],change in vivo at 10 mg/kg [2]: -31%
0.2 µM,Cc1ccc2c(c1NC(=O)C(C)(C)CCCCCCOCCCC(C)C)OCCC2=O [Ex. 29],change in vivo at 10 mg/kg [2]: -22%
0.05 µM,Cc1ccc2c(c1NC(=O)C(C)(C)CCCCOc1ccc(C(C)(C)C)cc1)OCCC2=O [Ex. 30],–
0.51 µM,Cc1ccc2c(c1NC(=O)C(C)(C)CCCCOc1ccc(Cl)cc1)OCCC2=O [Ex. 31],–
0.47 µM,Cc1ccc2c(c1NC(=O)C(C)(C)CCCCCOc1ccc(Cl)cc1)OCCC2=O [Ex. 32],change in vivo at 10 mg/kg [2]: -33%
0.025 µM,"COc1ccc2c(c1NC(=O)C(C)(C)CCCCCCBr)OCCC2=O [Ex. 37, N-(7-methoxy-4-chromanon-8-yl)-2,2-dimethyl-8-bromooctaneamide]",–
0.043 µM,COc1ccc2c(c1NC(=O)C(C)(C)CCCCCCOc1ccc(C)cc1)OCCC2=O [Ex. 40],–
0.064 µM,COc1ccc2c(c1NC(=O)C(C)(C)CCCCCCOc1ccc(Cl)cc1)OCCC2=O [Ex. 42],change in vivo at 1 mg/kg [2]: -51%
0.09 µM,Cc1cc(C)c2c(c1NC(=O)C(C)(C)CCCCCCOCC(C)C)OCCC2=O [Ex. 43],–
0.15 µM,CCCCCCCCCCC(C)(C)C(=O)Nc1c(Cl)ccc2c1OCCC2=O [Ex. 47],–
0.014 µM,CCCCCCCCCCC(C)(C)C(=O)Nc1c(OCCC)ccc2c1OCCC2=O [Ex. 48],–
0.081 µM,"COc1ccc2c(c1NC(=O)C(C)(C)CCCCCCOc1ccc(N(C)C)cc1)OCCC2=O [Ex. 55, N-(7-Methoxy-4-chromanon-8-yl)-2,2-dimethyl-8-p-dimethylaminophenoxyoctaneamide]",–
